In patent publication US10562891B2, “Quinazolinones as PARP14 inhibitors” (Ribon Therapeutics Inc., priority 2017, dated 2020):
Structures can show the parent of a compound that is named as a salt.

Target: catalytic domain of human PARP14 (Homo sapiens (Human), UniProt Q460N5)
Assay: Enzymatic assay for inhibition of PARP14 (DELFIA, auto-modification with biotin-NAD)
Type: biochemical
Settings: auto-modification of PARP14 by biotin-NAD, 50 nM PARP14, 3 μM biotin-NAD
Method: An N-terminal His-TEV fusion tag was used to purify the protein from cell lysates. The His-TEV tag was left on the protein for use in the enzymatic assay.
Enzymatic inhibition of PARP14 was measured using a dissociation-enhanced lanthanide fluorescence immunoassay (DELFIA) monitoring the auto-modification of PARP14 by biotinylated nicotinamide adenine dinucleotide (biotin-NAD). 1 μL of a dose response curve of each test compound was spotted in 384-well nickel-coated white microplates (Thermo) using a Mosquito (TTP Labtech). Reactions were performed in a 50 μL volume by adding 40 μL of PARP14 in assay buffer (20 mM HEPES pH==8, 100 mM NaCl, 0.1% bovine serum albumin, 2 mM DTT and 0.002%0 Tween20), incubating with test compound at 25° C. for 30 min, then adding 10 μL of biotin-NAD (Biolog). The final concentrations of PARP14 and biotin-NAD are 50 nM and 3 μM, respectively. Reactions proceeded at 25° C. for 3 h, then were quenched with 5 μL of 10 mM unmodified nicotinamide adenine dinucleotide (Sigma-Aldrich). The quenched reactions were washed 3 times with 100 μL of TBST wash buffer (50 mM Tris-HCl, 150 mM NaCl and 0.1% Tween20). Next, to the washed and dried plate was added 25 μL of DELFIA Europium-N1 streptavidin (Perkin Elmer) diluted in DELFIA assay buffer (Perkin Elmer). After a 30 min incubation at 25° C., the plate was washed 5 times with TBST wash buffer. Finally, 25 μL of DELFIA enhancement solution was added. After a 5 min incubation the plate was read on an Envision platereader equipped with a LANCE/DELFIA top mirror (Perkin Elmer) using excitation of 340 nm and emission of 615 nm to measure the amount of Europium present in each well, informing on the amount of biotin-NAD that was transferred in the automodification reaction.
[formula] where ex615cmpd is the emission from the compound treated well, ex615min is the emission from the rucaparib treated positive control well and ex615max is the emission from the DMSO treated negative control well.
The % inhibition values were plotted as a function of compound concentration and the following 4-parameter fit was applied to derive the IC50 values:
[formula] where top and bottom are normally allowed to float, but may be fixed at 100 or 0 respectively in a 3-parameter fit. The Hill Coefficient is normally allowed to float but may also be fixed at 1 in a 3-parameter fit. Y is the % inhibition and X is the compound concentration.

Chain of catalytic domain of human PARP14 (Q460N5 1611-1801): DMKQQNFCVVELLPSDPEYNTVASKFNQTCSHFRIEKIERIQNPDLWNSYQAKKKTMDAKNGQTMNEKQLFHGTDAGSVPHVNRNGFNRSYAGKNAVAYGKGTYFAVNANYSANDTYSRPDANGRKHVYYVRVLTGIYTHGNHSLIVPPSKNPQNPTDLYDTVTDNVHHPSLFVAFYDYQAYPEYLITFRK

Structure (SMILES)	IC50
N#Cc1ccc2c(=O)[nH]c(CSC3CCOCC3)nc2c1 [Example 1, 4-Oxo-2-(((tetrahydro-2H-pyran-4-yl)thio)methyl)-3,4-dihydroquinazoline-7-carbonitrile]	> 10 µM
Cc1cccc2c(=O)[nH]c(CSC3CCOCC3)nc12 [Example 2]	< 1 µM
Cc1ccc2nc(CSC3CCOCC3)[nH]c(=O)c2c1 [Example 3]	1 to 10 µM
COc1ccc2nc(CSC3CCOCC3)[nH]c(=O)c2c1 [Example 4]	> 10 µM
O=c1[nH]c(CSC2CCOCC2)nc2c(Cl)cccc12 [Example 5]	1 to 10 µM
COc1cccc2c(=O)[nH]c(CSC3CCOCC3)nc12 [Example 6]	1 to 10 µM
Cc1cccc2c(=O)[nH]c(C(C)SC3CCOCC3)nc12 (centres unmarked) [Example 7]	> 10 µM
Cc1ccc(F)c2c(=O)[nH]c(CSC3CCOCC3)nc12 [Example 8]	< 1 µM
Cc1cccc2nc(CSC3CCOCC3)[nH]c(=O)c12 [Example 9]	1 to 10 µM
O=c1[nH]c(CSC2CCOCC2)nc2c(Cc3ccccc3)cccc12 [Example 10]	> 10 µM
O=c1[nH]c(CSC2CCOCC2)nc2cc(Cc3ccccc3)ccc12 [Example 11]	> 10 µM
Cc1cccc2c(=O)[nH]c(CSCC3CCOCC3)nc12 [Example 12, 8-Methyl-2-((((tetrahydro-2H-pyran-4-yl)methyl)thio)methyl)quinazolin-4(3H)-one]	1 to 10 µM
Cc1cccc2c(=O)[nH]c(CSC3CCNCC3)nc12 [Example 13, 8-Methyl-2-((piperidin-4-ylthio)methyl)quinazolin-4(3H)-one Trifluoroacetate]	< 1 µM
Cc1cccc2c(=O)[nH]c(CSC3CCN(C)CC3)nc12 [Example 14, 8-Methyl-2-(((1-methylpiperidin-4-yl)thio)methyl)quinazolin-4(3H)-one]	1 to 10 µM
Cc1cccc2c(=O)[nH]c(CSC3CCNC3)nc12 (centres unmarked) [Example 15, 8-Methyl-2-((pyrrolidin-3-ylthio)methyl)quinazolin-4(3H)-one trifluoroacetate]	1 to 10 µM
Cc1cccc2c(=O)[nH]c(CSC3CCN(C)C3)nc12 (centres unmarked) [Example 16, 8-Methyl-2-(((1-methylpyrrolidin-3-yl)thio)methyl)quinazolin-4(3H)-one]	1 to 10 µM
CC(=O)N1CCC(SCc2nc3c(C)cccc3c(=O)[nH]2)CC1 [Example 17, 2-(((1-Acetylpiperidin-4-yl)thio)methyl)-8-methylquinazolin-4(3H)-one]	1 to 10 µM
Cc1cccc2c(=O)[nH]c(CSC3CCN(Cc4ccccn4)CC3)nc12 [Example 18, 8-Methyl-2-(((1-(pyridin-2-ylmethyl)piperidin-4-yl)thio)methyl)quinazolin-4(3H)-one]	< 1 µM
Cc1cccc2c(=O)[nH]c(CS(=O)(=O)C3CCOCC3)nc12 [Example 19, 8-Methyl-2-(((tetrahydro-2H-pyran-4-yl)sulfonyl)methyl)quinazolin-4(3H)-one]	> 10 µM
Cc1cccc2c(=O)[nH]c(CSC3CCCNCC3)nc12 (centres unmarked) [Example 20, 2-((Azepan-4-ylthio)methyl)-8-methylquinazolin-4(3H)-one Trifluoroacetate]	< 1 µM
Cc1cccc2c(=O)[nH]c(CSC3CCC(N(C)C)CC3)nc12 (centres unmarked) [Example 21, 2-(((4-(Dimethylamino)cyclohexyl)thio)methyl)-8-methylquinazolin-4(3H)-one]	< 1 µM
Cc1cccc2c(=O)[nH]c(CSC3CCC(O)CC3)nc12 (centres unmarked) [Example 22, 2-(((4-Hydroxycyclohexyl)thio)methyl)-8-methylquinazolin-4(3H)-one]	< 1 µM

Structure (SMILES)	IC50
Cc1cccc2c(=O)[nH]c(CS[C@H]3CC[C@H](O)CC3)nc12 [Example 23, 2-((((trans)-4-Hydroxycyclohexyl)thio)methyl)-8-methylquinazolin-4(3H)-one]	< 1 µM
Cc1cccc2c(=O)[nH]c(CS[C@H]3CC[C@@H](O)CC3)nc12 [Example 24, 2-((((cis)-4-Hydroxycyclohexyl)thio)methyl)-8-methylquinazolin-4(3H)-one]	1 to 10 µM
Cc1cccc2c(=O)[nH]c(CSC3CNC3)nc12 [Example 25, 2-((Azetidin-3-ylthio)methyl)-8-methylquinazolin-4(3H)-one Trifluoroacetate]	> 10 µM
CO[C@H]1CC[C@H](SCc2nc3c(C)cccc3c(=O)[nH]2)CC1 [Example 26, 2-((((trans)-4-Methoxycyclohexyl)thio)methyl)-8-methylquinazolin-4(3H)-one]	1 to 10 µM
CO[C@H]1CC[C@@H](SCc2nc3c(C)cccc3c(=O)[nH]2)CC1 [Example 27, 2-((((cis)-4-Methoxycyclohexyl)thio)methyl)-8-methylquinazolin-4(3H)-one]	1 to 10 µM
N#Cc1cccc2c(=O)[nH]c(CSC3CCOCC3)nc12 [Example 28, 4-Oxo-2-(((tetrahydro-2H-pyran-4-yl)thio)methyl)-3,4-dihydroquinazoline-8-carbonitrile]	> 10 µM
O=c1[nH]c(CSC2CCOCC2)nc2cc(Oc3ccccc3)ccc12 [Example 29, 7-Phenoxy-2-(((tetrahydro-2H-pyran-4-yl)thio)methyl)quinazolin-4(3H)-one]	1 to 10 µM
O=c1[nH]c(CSC2CCOCC2)nc2cc(F)ccc12 [Example 30, 7-Fluoro-2-(((tetrahydro-2H-pyran-4-yl)thio)methyl)quinazolin-4(3H)-one]	1 to 10 µM
COc1ccc2c(=O)[nH]c(CSC3CCOCC3)nc2c1 [Example 31, 7-Methoxy-2-(((tetrahydro-2H-pyran-4-yl)thio)methyl)quinazolin-4(3H)-one]	1 to 10 µM
Cc1cccc2c(=O)[nH]c(CSC3CCCN(C)C3)nc12 (centres unmarked) [Example 32, 8-Methyl-2-(((1-methylpiperidin-3-yl)thio)methyl)quinazolin-4(3H)-one]	1 to 10 µM
Cc1c(F)ccc2c(=O)[nH]c(CSC3CCOCC3)nc12 [Example 33, 7-Fluoro-8-methyl-2-(((tetrahydro-2H-pyran-4-yl)thio)methyl)quinazolin-4(3H)-one]	< 1 µM
Cc1ccc(Cl)c2c(=O)[nH]c(CSC3CCOCC3)nc12 [Example 34, 5-Chloro-8-methyl-2-(((tetrahydro-2H-pyran-4-yl)thio)methyl)quinazolin-4(3H)-one]	< 1 µM
Cc1ccc(C(F)(F)F)c2c(=O)[nH]c(CSC3CCOCC3)nc12 [Example 35, 8-Methyl-2-(((tetrahydro-2H-pyran-4-yl)thio)methyl)-5-(trifluoromethyl)quinazolin-4(3H)-one]	< 1 µM
O=c1[nH]c(CSC2CCOCC2)nc2cccnc12 [Example 36, 2-(((Tetrahydro-2H-pyran-4-yl)thio)methyl)pyrido[3,2-d]pyrimidin-4(3H)-one]	> 10 µM
O=c1[nH]c(CSC2CCOCC2)nc2cnccc12 [Example 37, 2-(((Tetrahydro-2H-pyran-4-yl)thio)methyl)pyrido[3,4-d]pyrimidin-4(3H)-one]	> 10 µM
Cc1cccc2c(=O)[nH]c(CS[C@H]3C[C@H](OCc4ccccc4)C3)nc12 [Example 38, 2-((((trans)-3-(Benzyloxy)cyclobutyl)thio)methyl)-8-methylquinazolin-4(3H)-one]	> 10 µM
Cc1cccc2c(=O)[nH]c(CSC3COC3)nc12 [Example 39, 8-Methyl-2-((oxetan-3-ylthio)methyl)quinazolin-4(3H)-one]	> 10 µM
O=c1[nH]c(CSC2CCOCC2)nc2ccncc12 [Example 40, 2-(((Tetrahydro-2H-pyran-4-yl)thio)methyl)pyrido[4,3-d]pyrimidin-4(3H)-one]	> 10 µM
Cc1ccnc2c(=O)[nH]c(CSC3CCOCC3)nc12 [Example 41, 8-Methyl-2-(((tetrahydro-2H-pyran-4-yl)thio)methyl)pyrido[3,2-d]pyrimidin-4(3H)-one]	> 10 µM
Cc1nccc2c(=O)[nH]c(CSC3CCOCC3)nc12 [Example 42, 8-Methyl-2-(((tetrahydro-2H-pyran-4-yl)thio)methyl)pyrido[3,4-d]pyrimidin-4(3H)-one]	> 10 µM
O=c1[nH]c(CSC2CCOCC2)nc2ncccc12 [Example 43, 2-(((Tetrahydro-2H-pyran-4-yl)thio)methyl)pyrido[2,3-d]pyrimidin-4(3H)-one]	> 10 µM
Cc1cc(Cl)cc2c(=O)[nH]c(CSC3CCOCC3)nc12 [Example 44, 6-Chloro-8-methyl-2-(((tetrahydro-2H-pyran-4-yl)thio)methyl)quinazolin-4(3H)-one]	< 1 µM
